In patent publication US9067935B2 (Janssen Pharmaceutica, NV, priority 2010, dated 2015):

Target: canine TRPM8 (Canis lupus familiaris, UniProt Q1A7N1)
Assay: In Vitro Canine TRPM8 Functional Assay (intracellular Ca2+ fluorescence, icilin challenge)
Assay type: cell-based
Conditions: HEK293 cells stably expressing canine TRPM8; for inhibition at 0.2 µM: HEK293, @ 0.2 μM, read-out: % Inh (%) @ 0.2 μM; for IC50: icilin at ~80% maximal response
Protocol: The functional activity of compounds of the formula (I) was determined by measuring changes in intracellular calcium concentration using a Ca^2+-sensitive fluorescent dye. The changes in fluorescent signal were monitored by a fluorescence plate reader, either a FLIPR™ (Molecular Devices) or FDSS (Hamamatsu).
At 24 hrs prior to assay, HEK293 cells stably expressing canine TRPM8 were seeded in culture medium in black wall, clear-base poly-D-lysine coated 384-well plates (BD Biosciences, NJ, USA) and grown overnight in 5% CO2 at 37° C. On assay day, growth media was removed and cells were loaded with Calcium 3 Dye (Molecular Devices) for 35 min at 37° C., under 5% CO2 and then for 25 min at room temperature and atmosphere. Subsequently, cells were tested for agonist-induced increases in intracellular Ca^2+ levels using FLIPR™ or FDSS. Cells were challenged with a compound of the Formula (I) (at varying concentrations) and intracellular Ca^2+ was measured for 5 min prior to the addition of icilin to all wells to achieve a final concentration that produces approximately an 80% maximal response. EC50 or IC50 values for compounds of the present invention were determined from eight-point dose-response studies. Curves were generated using the average of quadruplicate wells for each data point.

Sequence of canine TRPM8 (Q1A7N1 1-1104): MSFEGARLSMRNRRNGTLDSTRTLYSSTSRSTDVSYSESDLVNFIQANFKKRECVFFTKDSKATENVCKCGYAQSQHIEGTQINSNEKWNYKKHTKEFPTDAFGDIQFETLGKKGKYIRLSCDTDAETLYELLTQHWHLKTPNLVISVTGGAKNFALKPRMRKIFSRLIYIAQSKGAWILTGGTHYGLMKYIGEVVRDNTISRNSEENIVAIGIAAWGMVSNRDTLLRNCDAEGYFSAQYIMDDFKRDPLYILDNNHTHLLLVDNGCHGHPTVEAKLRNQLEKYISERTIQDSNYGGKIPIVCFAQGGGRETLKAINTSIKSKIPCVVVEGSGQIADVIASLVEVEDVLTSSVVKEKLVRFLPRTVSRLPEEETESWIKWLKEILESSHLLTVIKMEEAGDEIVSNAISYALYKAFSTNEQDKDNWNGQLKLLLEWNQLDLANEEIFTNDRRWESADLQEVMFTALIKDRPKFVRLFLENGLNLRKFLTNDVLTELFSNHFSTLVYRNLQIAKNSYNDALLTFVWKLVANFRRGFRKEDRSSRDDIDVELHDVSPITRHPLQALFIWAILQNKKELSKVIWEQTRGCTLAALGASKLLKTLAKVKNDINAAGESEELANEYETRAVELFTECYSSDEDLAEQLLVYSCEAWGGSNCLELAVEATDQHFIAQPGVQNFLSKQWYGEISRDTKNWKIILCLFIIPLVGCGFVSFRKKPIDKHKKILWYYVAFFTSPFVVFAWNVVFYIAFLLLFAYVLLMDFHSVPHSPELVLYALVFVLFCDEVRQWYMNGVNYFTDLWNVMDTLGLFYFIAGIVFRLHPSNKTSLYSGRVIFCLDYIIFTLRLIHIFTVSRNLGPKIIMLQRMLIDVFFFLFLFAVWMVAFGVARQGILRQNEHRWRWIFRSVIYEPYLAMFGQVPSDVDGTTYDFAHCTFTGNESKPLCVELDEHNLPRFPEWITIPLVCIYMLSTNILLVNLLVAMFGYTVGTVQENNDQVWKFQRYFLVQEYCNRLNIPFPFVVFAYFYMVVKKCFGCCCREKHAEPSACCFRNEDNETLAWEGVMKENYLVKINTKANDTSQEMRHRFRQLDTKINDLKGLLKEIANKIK

Row | Compound | inhibition at 0.2 µM | IC50 | % Inh (%) @ 0.2 μM | EC50
1 | CCc1c(N(CCC2CC2)S(=O)(=O)c2ccccc2)nc2c(C(F)(F)F)cccn12 [Compound 63, N-(2-Cyclopropylethyl)-N-(3-ethyl-8-trifluoromethylimidazo[1,2-a]pyridin-2-yl)benzenesulfonamide] | 99% | 24.1 nM | – | –
2 | CCc1c(N(CCCCC(F)(F)F)S(=O)(=O)c2ccccc2)nc2c(C(F)(F)F)cccn12 [Compound 64] | 99% | 22 nM | – | –
3 | CCc1c(N(CC2CC2)S(=O)(=O)c2ccccc2)nc2c(C(F)(F)F)cccn12 [Compound 65] | 72% | 62.8 nM | – | –
4 | CCc1c(N(CCC(F)(F)F)S(=O)(=O)c2ccccc2)nc2c(C(F)(F)F)cccn12 [Compound 66] | 83% | – | – | –
5 | Cc1ccn2c(C)c(N(Cc3ccc(OC(F)(F)F)cc3)S(=O)(=O)c3ccc(F)cc3)nc2c1 [Compound 67] | 96% | 62.1 nM | – | –
6 | Cc1ccc2nc(N(Cc3ccc(C(F)(F)F)c(F)c3)S(=O)(=O)c3ccc(F)cc3)c(C)n2c1 [Compound 68] | 100% | 41.6 nM | – | –
7 | O=S(=O)(c1ccccc1)N(Cc1ccc(F)c(C(F)(F)F)c1)c1nc2ccccn2c1C1CC1 [Compound 69] | – | 28.2 nM | 101% | –
8 | O=S(=O)(c1ccccc1)N(Cc1ccc(C(F)(F)F)c(F)c1)c1nc2ccccn2c1C1CC1 [Compound 70] | 101% | 8.21 nM | – | –
9 | O=S(=O)(c1ccccc1)N(Cc1ccc(OC(F)(F)F)cc1)c1nc2ccccn2c1C1CC1 [Compound 71] | 101% | 21.5 nM | – | –
10 | O=S(=O)(c1ccccc1)N(Cc1ccc(C(F)(F)F)cc1)c1nc2ccccn2c1C1CC1 [Compound 72] | 101% | 11.3 nM | – | –
11 | O=S(=O)(c1ccccc1)N(Cc1cccc(C(F)(F)F)c1)c1nc2ccccn2c1C1CC1 [Compound 73] | 100% | – | – | –
12 | O=S(=O)(c1ccc(N2CCOCC2)nc1)N(Cc1ccc(C(F)(F)F)c(F)c1)c1nc2ccc(Cl)cn2c1Cl [Compound 74] | 74% | 62.6 nM | – | –
13 | O=S(=O)(c1ccc(-n2cccn2)cc1)N(Cc1ccc(C(F)(F)F)c(F)c1)c1nc2ccccn2c1Br [Compound 75] | 99% | 1.94 nM | – | –
14 | O=S(=O)(c1ccc(N2CCOCC2)nc1)N(Cc1ccc(OC(F)(F)F)cc1)c1nc2ccc(Cl)cn2c1Cl [Compound 76] | 72% | 70.5 nM | – | –
15 | O=S(=O)(c1ccc(-n2cccn2)cc1)N(Cc1ccc(OC(F)(F)F)cc1)c1nc2ccccn2c1Br [Compound 77] | 100% | 2.27 nM | – | –
16 | O=S(=O)(c1ccc(N2CCOCC2)nc1)N(Cc1ccc(F)c(C(F)(F)F)c1)c1nc2ccc(Cl)cn2c1Cl [Compound 78] | 26% | – | – | –
17 | O=S(=O)(c1ccc(-n2cccn2)cc1)N(Cc1ccc(F)c(C(F)(F)F)c1)c1nc2ccccn2c1Br [Compound 79] | 99% | 3.17 nM | – | –
18 | CCc1c(N(Cc2ccc(C(F)(F)F)c(F)c2)S(=O)(=O)c2ccccc2)nc2cccc(C)n12 [Compound 80] | 99% | 12.1 nM | – | –
19 | CCc1c(N(Cc2ccc(F)c(C(F)(F)F)c2)S(=O)(=O)c2ccccc2)nc2ccc(Cl)cn12 [Compound 82] | 100% | 14.2 nM | – | –
20 | O=S(=O)(c1ccc(N2CCOCC2)nc1)N(Cc1ccccc1)c1nc2ccccn2c1Br [Compound 83] | 87% | 74.6 nM | – | –
21 | O=S(=O)(c1ccc(N2CCOCC2)nc1)N(Cc1ccc(OC(F)(F)F)cc1)c1nc2ccccn2c1Br [Compound 84] | 100% | 11.5 nM | – | –
22 | O=S(=O)(c1ccc(N2CCOCC2)nc1)N(Cc1ccc(C(F)(F)F)c(F)c1)c1nc2ccccn2c1Br [Compound 85] | 100% | 31.2 nM | – | –
23 | O=S(=O)(c1ccc(N2CCOCC2)nc1)N(Cc1ccc(F)c(C(F)(F)F)c1)c1nc2ccccn2c1Br [Compound 86] | 99% | 10.7 nM | – | –
24 | CCc1c(N(Cc2ccc(C(F)(F)F)c(F)c2)S(=O)(=O)c2ccc(N3CCOCC3)nc2)nc2ccc(Cl)cn12 [Compound 87] | 86% | 86.3 nM | – | –

Row | Compound | inhibition at 0.2 µM | IC50 | % Inh (%) @ 0.2 μM | EC50
25 | CCc1c(N(Cc2ccc(C(F)(F)F)c(F)c2)S(=O)(=O)c2ccc(-n3cccn3)cc2)nc2ccc(Cl)cn12 [Compound 88] | 100% | 41.4 nM | – | –
26 | CCc1c(N(Cc2ccc(OC(F)(F)F)cc2)S(=O)(=O)c2ccc(-n3cccn3)cc2)nc2ccc(Cl)cn12 [Compound 89] | 99% | 25 nM | – | –
27 | O=S(=O)(c1ccc(N2CCOCC2)nc1)N(Cc1ccc(F)c(C(F)(F)F)c1)c1nc2ccccn2c1Cl [Compound 90, N-(3-Chloroimidazo[1,2-a]pyridin-2-yl)-N-(4-fluoro-3-trifluoromethylbenzyl)-6-morpholin-4-yl-pyridine-3-sulfonamide] | 99% | 26.9 nM | – | –
28 | O=S(=O)(c1ccc(N2CCOCC2)nc1)N(Cc1ccc(C(F)(F)F)c(F)c1)c1nc2ccccn2c1Cl [Compound 91] | 99% | 41.6 nM | – | –
29 | O=S(=O)(c1ccc(N2CCOCC2)nc1)N(Cc1ccc(OC(F)(F)F)cc1)c1nc2ccccn2c1Cl [Compound 92] | 99% | 25 nM | – | –
30 | O=S(=O)(c1ccc(N2CCOCC2)nc1)N(Cc1ccc(C(F)(F)F)cc1)c1nc2ccccn2c1Cl [Compound 93] | 98% | 26.9 nM | – | –
31 | O=S(=O)(c1ccc(N2CCOCC2)nc1)N(Cc1cccc(C(F)(F)F)c1)c1nc2ccccn2c1Cl [Compound 94] | 97% | 48.4 nM | – | –
32 | O=S(=O)(c1ccc(-n2cccn2)cc1)N(Cc1ccc(F)c(C(F)(F)F)c1)c1nc2ccccn2c1Cl [Compound 95] | 99% | 7 nM | – | –
33 | O=S(=O)(c1ccc(-n2cccn2)cc1)N(Cc1ccc(C(F)(F)F)c(F)c1)c1nc2ccccn2c1Cl [Compound 96] | 100% | 5.5 nM | – | –
34 | O=S(=O)(c1ccc(-n2cccn2)cc1)N(Cc1ccc(OC(F)(F)F)cc1)c1nc2ccccn2c1Cl [Compound 97] | 99% | 8.48 nM | – | –
35 | O=S(=O)(c1ccc(-n2cccn2)cc1)N(Cc1ccc(C(F)(F)F)cc1)c1nc2ccccn2c1Cl [Compound 98] | 99% | 4.04 nM | – | –
36 | O=S(=O)(c1ccc(-n2cccn2)cc1)N(Cc1cccc(C(F)(F)F)c1)c1nc2ccccn2c1Cl [Compound 99] | 99% | 15.1 nM | – | –
37 | Cc1c(N(Cc2ccc(C(F)(F)F)c(F)c2)S(=O)(=O)c2ccccc2)nc2ccc(C(F)(F)F)cn12 [Compound 100, N-(3-Fluoro-4-trifluoromethylbenzyl)-N-(3-methyl-6-trifluoromethylimidazo[1,2-a]pyridin-2-yl)benzenesulfonamide] | 31% | – | – | –
38 | Cc1c(N(Cc2ccc(C(F)(F)F)c(F)c2)S(=O)(=O)c2ccccc2)nc2cc(C(F)(F)F)ccn12 [Compound 101] | 22% | – | – | –
39 | Cc1c(N(Cc2ccc(F)c(C(F)(F)F)c2)S(=O)(=O)c2ccc(-n3cccn3)cc2)nc2ccc(Cl)cn12 [Compound 102, N-(6-chloro-3-methylimidazo[1,2-a]pyridin-2-yl)-N-(4-fluoro-3-trifluoromethylbenzyl)-4-(1H-pyrazol-1-yl)benzenesulfonamide] | 100% | 21.8 nM | – | –
40 | Cc1c(N(Cc2ccc(C(F)(F)F)c(F)c2)S(=O)(=O)c2ccc(-n3cccn3)cc2)nc2ccc(Cl)cn12 [Compound 103] | 98% | 24.5 nM | – | –
41 | Cc1c(N(Cc2ccc(OC(F)(F)F)cc2)S(=O)(=O)c2ccc(-n3cccn3)cc2)nc2ccc(Cl)cn12 [Compound 104] | 93% | 51.6 nM | – | –
42 | Cc1c(N(Cc2ccc(C(F)(F)F)cc2)S(=O)(=O)c2ccc(-n3cccn3)cc2)nc2ccc(Cl)cn12 [Compound 105] | 98% | 30.3 nM | – | –
43 | Cc1c(N(Cc2ccc(OC(F)(F)F)cc2)S(=O)(=O)CCN(CC(C)C)CC(C)C)nc2cc(C(F)(F)F)ccn12 [Compound 106, N-(4-Trifluoromethoxybenzyl)-N-(7-trifluoromethyl-3-methylimidazo[1,2-a]pyridin-2-yl)-2-(N,N-diisobutylamino)ethylsulfonamide] | – | – | – | 93 nM
44 | COC(=O)c1ccc(S(=O)(=O)N(Cc2ccc(OC(F)(F)F)cc2)c2nc3ccccn3c2C(C)C)cc1 [Compound 108] | – | 10.4 nM | 101% | –
45 | COC(=O)c1ccc(S(=O)(=O)N(Cc2ccc(OC(F)(F)F)cc2)c2nc3ccc(Cl)cn3c2C)cc1 [Compound 110, Methyl 4-(N-(6-Chloro-3-methylimidazo[1,2-a]pyridin-2-yl)-N-(4-trifluoromethoxybenzyl)sulfamoyl)benzoate] | 82% | 57.2 nM | – | –
46 | COC(=O)c1ccc(S(=O)(=O)N(Cc2ccc(F)c(F)c2)c2nc3ccc(Cl)cn3c2C)cc1 [Compound 111] | 73% | 81.5 nM | – | –
47 | COC(=O)c1ccc(S(=O)(=O)N(Cc2ccc(F)c(C(F)(F)F)c2)c2nc3ccc(Cl)cn3c2C)cc1 [Compound 112] | 83% | 82.1 nM | – | –
